Measurements reported in patent publication US6245336A, “Prevention and treatment of acetaminophen toxicity with grape seed proanthocyanidin extract” (Dry Creek Nutrition, Inc., priority 1999, dated 2001).

What was measured:
[1] = tested on: serum alanine aminotransferase activity; assay: serum alanine aminotransferase (ALT) activity in acetaminophen-treated mice; format: in vivo; settings: no pre-exposure to GSPE, 24 h
Method: (§1) Trials of the efficacy of GSPE in preventing acetaminophen toxicity were performed using mice as test subjects. The GSPE used in the subject trials is a standardized water-ethanol extract from red grape seeds, identified as IH636 by InterHealth Nutraceuticals, Inc., of Concord, Calif. The dosage used in the subject trials was 100 mg of GSPE per kg of body weight, daily for three or seven days. This dosage is equivalent to about […] of body weight, based on the following formula from the CRC Handbook of Toxicology, Delanko M. J. and Hollinger M. A. eds., CRC Press 1995, p. 654:
(§2) GSPE was dissolved in phosphate-buffered saline solution and the solution was administered orally. Acetaminophen then was administered intraperitoneally, as a single toxic dose, in dosage of either 400 or 500 mg/kg. These dosage levels are equivalent to approximately 10 grams for normal healthy adults and 4 to 6 grams for alcoholics, levels that have been found toxic for humans. Twenty-four hours after administration of the acetaminophen, blood samples were removed from the subjects and analyzed for serum alanine aminotransferase activity, a well-known biomarker of liver toxicity. Liver samples also were taken and analyzed them for apoptotic and necrotic cell death DNA damage and gene expression.

[2] = tested on: mice; assay: number of deaths of mice treated with acetaminophen and GSPE; format: in vivo; settings: without pre-exposure to GSPE
Method: as §1, §2

[3] = tested on: liver tissue; assay: DNA fragmentation assay of liver tissue from acetaminophen-treated mice; format: in vivo; settings: without pre-exposure to GSPE
Method: as §1, §2

[4] = tested on: liver sections; assay: liver sections at 400× magnification (histology); format: in vivo, mice; settings: acetaminophen 500 mg/kg without GSPE pre-treatment; FIG. 11
Method: as §1
FIGS. 9 through 12 show comparison liver sections from test subjects at 400× magnification. FIGS. 9 and 10 show normal liver sections from test subjects not given acetaminophen.

[5] = tested on: humans; settings: normal healthy adults; cited from earlier work

**Q.** With `CC(=O)Nc1ccc(O)cc1` [acetaminophen, N-acetyl-p-amino phenol] as the compound, how does the “serum ALT” value ([1]; acetaminophen 400 mg/kg i.p.) read?
**A.** about 22,000 U/L

**Q.** What about the “serum ALT” value ([1]; acetaminophen 500 mg/kg i.p.) of the same compound?
**A.** about 30,000 U/L

**Q.** What about the number of deaths ([2]; acetaminophen 400 mg/kg) of the same compound?
**A.** 2

**Q.** And the number of deaths ([2]; acetaminophen 500 mg/kg)?
**A.** 4

**Q.** What about the DNA fragmentation ([3]; acetaminophen 400 mg/kg) of the same compound?
**A.** about 3.5 times that of the control group

**Q.** What about the DNA fragmentation ([3]; acetaminophen 500 mg/kg) of the same compound?
**A.** about 4.8 times that of the control group

**Q.** And the “liver section appearance indicating toxicity” value [4]?
**A.** whitening and browning of cells, indicating toxicity

**Q.** And the “dosage level found toxic for humans” value [5]?
**A.** approximately 10 grams
